# Test results published in PubChem BioAssay (NCI).
#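 Where inhibition never reached the appropriate level, the endpoint shown equals the highest concentration tested. Otherwise, values were interpolated linearly from a five-concentration, 48-hour dose response in 96-well plates. GI50 marks 50% less growth. At the TGI there is no net growth.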
# Columns and labels:
# Assay in all cases: NCI-60 cell line screen, 48 h
# 786-0 renal = test system: 786-0 renal
# RXF 393 renal = test system: RXF 393 renal
# SK-MEL-28 melanoma = test system: SK-MEL-28 melanoma
# HCC-2998 colon = test system: HCC-2998 colon
# SN12C renal = test system: SN12C renal
# HCT-15 colon = test system: HCT-15 colon
# HT29 colon = test system: HT29 colon
# CCRF-CEM leukemia = test system: CCRF-CEM leukemia
# SK-MEL-5 melanoma = test system: SK-MEL-5 melanoma
# SNB-75 CNS = test system: SNB-75 CNS
# SK-MEL-2 melanoma = test system: SK-MEL-2 melanoma
# OVCAR-4 ovarian = test system: OVCAR-4 ovarian
# HOP-62 NSCLC = test system: HOP-62 NSCLC
# KM12 colon = test system: KM12 colon
# A498 renal = test system: A498 renal
# BT-549 breast = test system: BT-549 breast
# IGROV1 ovarian = test system: IGROV1 ovarian
# PC-3 prostate = test system: PC-3 prostate
# LOX IMVI melanoma = test system: LOX IMVI melanoma
# M14 melanoma = test system: M14 melanoma
# SF-268 CNS = test system: SF-268 CNS
# NCI-H522 lung = test system: NCI-H522 lung
# SF-539 CNS = test system: SF-539 CNS
# EKVX NSCLC = test system: EKVX NSCLC
# OVCAR-8 ovarian = test system: OVCAR-8 ovarian
# K-562 leukemia = test system: K-562 leukemia
# UACC-62 melanoma = test system: UACC-62 melanoma
# HCT-116 colon = test system: HCT-116 colon
smiles,measurement,setting,value
COc1ccccc1NC1=C(Cl)C(=O)c2nc(C)ccc2C1=O,GI50,786-0 renal,1.91 µM
same,TGI,786-0 renal,3.61 µM
same,GI50,RXF 393 renal,1.42 µM
same,TGI,RXF 393 renal,2.76 µM
same,GI50,SK-MEL-28 melanoma,1.85 µM
same,TGI,SK-MEL-28 melanoma,3.34 µM
same,GI50,HCC-2998 colon,1.87 µM
same,TGI,HCC-2998 colon,3.46 µM
same,GI50,SN12C renal,1.7 µM
same,TGI,SN12C renal,3.29 µM
same,GI50,HCT-15 colon,1.33 µM
same,TGI,HCT-15 colon,3.02 µM
same,GI50,HT29 colon,2.13 µM
same,TGI,HT29 colon,4.49 µM
same,GI50,CCRF-CEM leukemia,1.94 µM
same,TGI,CCRF-CEM leukemia,8.21 µM
same,GI50,SK-MEL-5 melanoma,1.75 µM
same,TGI,SK-MEL-5 melanoma,3.17 µM
same,GI50,SNB-75 CNS,1.5 µM
same,TGI,SNB-75 CNS,2.84 µM
same,GI50,SK-MEL-2 melanoma,1.81 µM
same,TGI,SK-MEL-2 melanoma,3.35 µM
same,GI50,OVCAR-4 ovarian,1.21 µM
same,TGI,OVCAR-4 ovarian,2.49 µM
same,GI50,HOP-62 NSCLC,2.41 µM
same,TGI,HOP-62 NSCLC,6.98 µM
same,GI50,KM12 colon,1.49 µM
same,TGI,KM12 colon,3.08 µM
same,GI50,A498 renal,1.9 µM
same,TGI,A498 renal,4.6 µM
same,GI50,BT-549 breast,1.72 µM
same,TGI,BT-549 breast,3.27 µM
same,GI50,IGROV1 ovarian,1.46 µM
same,TGI,IGROV1 ovarian,2.92 µM
same,GI50,PC-3 prostate,1.21 µM
same,TGI,PC-3 prostate,2.58 µM
same,GI50,LOX IMVI melanoma,0.952 µM
same,TGI,LOX IMVI melanoma,2.36 µM
same,GI50,M14 melanoma,1.82 µM
same,TGI,M14 melanoma,3.81 µM
same,GI50,SF-268 CNS,1.53 µM
same,TGI,SF-268 CNS,3.05 µM
same,GI50,NCI-H522 lung,1.81 µM
same,TGI,NCI-H522 lung,3.36 µM
same,GI50,SF-539 CNS,1.68 µM
same,TGI,SF-539 CNS,3.13 µM
same,GI50,EKVX NSCLC,1.61 µM
same,TGI,EKVX NSCLC,3.05 µM
same,GI50,OVCAR-8 ovarian,1.61 µM
same,TGI,OVCAR-8 ovarian,3.25 µM
same,GI50,K-562 leukemia,0.29 µM
same,TGI,K-562 leukemia,2.94 µM
same,GI50,UACC-62 melanoma,1.82 µM
same,TGI,UACC-62 melanoma,3.37 µM
same,GI50,HCT-116 colon,1.53 µM
